Assay results as given in patent US20220151230A1, “SPECIFICALLY SUBSTITUTED 3-(2-HALOGEN-6-ALKYL-4-PROPINYLPHENYL)-3-PYRROLIN-2-ONES AND TO THE USE THEREOF AS HERBICIDES” (Bayer Aktiengesellschaft, priority 2019, published 2022).

Experiments:
ECHCG [1] = assay: Post-emergence herbicidal effect against ECHCG; format: in vivo, Echinochloa crus-galli; details: one-leaf stage, 80 g/ha, assessed visually after about 3 weeks vs untreated controls, 100% = plants have died
Experimental: (§1) Seeds of monocotyledonous and dicotyledonous weed and crop plants are laid out in sandy loam soil in wood-fiber pots, covered with soil and cultivated in a greenhouse under good growth conditions. 2 to 3 weeks after sowing, the test plants are treated at the one-leaf stage. The compounds of the invention, formulated in the form of wettable powders (WP) or as emulsion concentrates (EC), are then sprayed onto the green parts of the plants as aqueous suspension or emulsion at a water application rate equating to 600 to 800 l/ha with addition of 0.2% wetting agent. After the test plants have been left to stand in the greenhouse under optimal growth conditions for about 3 weeks, the action of the preparations is assessed visually in comparison to untreated controls (herbicidal action in percent (%): 100% activity=the plants have died, 0% activity=like control plants).

SETVI [2] = assay: Post-emergence herbicidal effect against SETVI; format: in vivo, Setaria viridis; details: one-leaf stage, 80 g/ha, assessed visually after about 3 weeks vs untreated controls, 100% = plants have died
Experimental: as §1

AVEFA [3] = assay: Post-emergence herbicidal effect against AVEFA; format: in vivo, Avena fatua; details: one-leaf stage, 80 g/ha, assessed visually after about 3 weeks vs untreated controls, 100% = plants have died
Experimental: as §1

ALOMY [4] = assay: Pre-emergence herbicidal effect against ALOMY; format: in vivo, Alopecurus myosuroides; details: 320 g/ha, scored visually after 3 weeks vs untreated controls, 100% = plants have died
Description: (§2) Seeds of monocotyledonous and dicotyledonous weed plants and crop plants are laid out in sandy loam soil in wood-fiber pots and covered with soil. The compounds of the invention, formulated in the form of wettable powders (WP) or as emulsion concentrates (EC), are then applied to the surface of the covering soil as aqueous suspension or emulsion at a water application rate equating to 600 to 800 L/ha with addition of 0.2% wetting agent.
(§3) After the treatment, the pots are placed in a greenhouse and kept under good growth conditions for the trial plants. The damage to the test plants is scored visually after a test period of 3 weeks by comparison with untreated controls (herbicidal activity in percent (%): 100% activity=the plants have died, 0% activity=like control plants).

ALOMY [5] = assay: Post-emergence herbicidal effect against ALOMY; format: in vivo, Alopecurus myosuroides; details: one-leaf stage, 80 g/ha, assessed visually after about 3 weeks vs untreated controls, 100% = plants have died
Experimental: as §1

SETVI [6] = assay: Pre-emergence herbicidal effect against SETVI; format: in vivo, Setaria viridis; details: 320 g/ha, scored visually after 3 weeks vs untreated controls, 100% = plants have died
Description: as §2, §3

LOLRI [7] = assay: Post-emergence herbicidal effect against LOLRI; format: in vivo, Lolium rigidum; details: one-leaf stage, 80 g/ha, assessed visually after about 3 weeks vs untreated controls, 100% = plants have died
Experimental: as §1

AVEFA [8] = assay: Pre-emergence herbicidal effect against AVEFA; format: in vivo, Avena fatua; details: 320 g/ha, scored visually after 3 weeks vs untreated controls, 100% = plants have died
Description: as §2, §3

ECHCG [9] = assay: Pre-emergence herbicidal effect against ECHCG; format: in vivo, Echinochloa crus-galli; details: 320 g/ha, scored visually after 3 weeks vs untreated controls, 100% = plants have died
Description: as §2, §3

DIGSA [10] = assay: Post-emergence herbicidal effect against DIGSA; format: in vivo, Digitaria sanguinalis; details: one-leaf stage, 80 g/ha, assessed visually after about 3 weeks vs untreated controls, 100% = plants have died
Experimental: as §1

LOLRI [11] = assay: Pre-emergence herbicidal effect against LOLRI; format: in vivo, Lolium rigidum; details: 320 g/ha, scored visually after 3 weeks vs untreated controls, 100% = plants have died
Description: as §2, §3

DIGSA [12] = assay: Pre-emergence herbicidal effect against DIGSA; format: in vivo, Digitaria sanguinalis; details: 320 g/ha, scored visually after 3 weeks vs untreated controls, 100% = plants have died
Description: as §2, §3

Structure (SMILES) | Post-emergence action [%] against ECHCG (ECHCG [1]) [%] | Post-emergence action [%] against SETVI (SETVI [2]) [%] | Post-emergence action [%] against AVEFA (AVEFA [3]) [%] | Pre-emergence action [%] against ALOMY (ALOMY [4]) [%] | Post-emergence action [%] against ALOMY (ALOMY [5]) [%] | Pre-emergence action [%] against SETVI (SETVI [6]) [%] | Post-emergence action [%] against LOLRI (LOLRI [7]) [%] | Pre-emergence action [%] against AVEFA (AVEFA [8]) [%] | Pre-emergence action [%] against ECHCG (ECHCG [9]) [%] | Post-emergence action [%] against DIGSA (DIGSA [10]) [%] | Pre-emergence action [%] against LOLRI (LOLRI [11]) [%] | Pre-emergence action [%] against DIGSA (DIGSA [12]) [%]
CC#Cc1cc(Br)c(C2=C(O)C3(CCCC(OCCOC)C3)NC2=O)c(CC)c1 (centres unmarked) [Example D8] | 90 | 90 | 80 | 80 | 100 | 100 | 80 | – | – | – | – | –
CC#Cc1cc(C)c(C2=C(OC(=O)C(C)C)C3(CCC(CC)CC3)NC2=O)c(Cl)c1 (centres unmarked) [Example P1, 3-[2-Chloro-6-methyl-4-(prop-1-yn-1-yl)phenyl]-8-ethyl-2-oxo-1-azaspiro[4.5]dec-3-en-4-yl 2-methylpropanoate] | – | 100 | – | – | – | – | – | – | – | – | – | –
CC#Cc1cc(Cl)c(C2=C(OC(=O)OCC)C3(CCC(OCC)CC3)NC2=O)c(CC)c1 (centres unmarked) [Example P22] | 90 | 100 | – | 100 | – | 100 | – | 90 | 100 | 90 | 100 | 100
CC#Cc1cc(Cl)c(C2=C(OC(=O)OCC)C3(CCC(OCCOC)CC3)NC2=O)c(CC)c1 (centres unmarked) [Example P23] | – | 80 | – | 100 | 80 | 100 | – | 80 | 100 | – | 100 | 100
CC#Cc1cc(Cl)c(C2=C(OC(=O)C(C)C)C3(CCC(OC)CC3)NC2=O)c(CC)c1 (centres unmarked) [Example P25] | 100 | 100 | – | 100 | 90 | 100 | – | 100 | 100 | 100 | 90 | 100
CC#Cc1cc(Cl)c(C2=C(OC(=O)OC)C3(CCC(OCC)CC3)NC2=O)c(CC)c1 (centres unmarked) [Example P26] | 100 | 90 | – | 100 | 90 | 100 | – | 90 | 90 | 80 | 100 | 100
CC#Cc1cc(Cl)c(C2=C(OC(=O)OC)C3(CCC(OCCOC)CC3)NC2=O)c(CC)c1 (centres unmarked) [Example P28] | 80 | 80 | – | 100 | – | 100 | – | 80 | 100 | – | – | 100
CC#Cc1cc(Cl)c(C2=C(OC(=O)OC(C)(C)C)C3(CCC(OCCOC)CC3)NC2=O)c(CC)c1 (centres unmarked) [Example P29] | 90 | 90 | – | 80 | – | 80 | – | 80 | 90 | – | – | 90
CC#Cc1cc(Cl)c(C2=C(OC(=O)OC(C)(C)C)C3(CCC(OC)CC3)NC2=O)c(CC)c1 (centres unmarked) [Example P30] | – | 100 | 80 | 100 | 90 | 100 | – | 80 | 90 | – | 100 | 100
CC#Cc1cc(Cl)c(C2=C(OC(=O)C(C)C)C3(CCC(OCC)CC3)NC2=O)c(CC)c1 (centres unmarked) [Example P31] | – | 100 | – | 100 | 100 | 100 | – | 90 | 100 | – | 100 | 100
CC#Cc1cc(Cl)c(C2=C(OC(=O)C(C)C)C3(CCC(OCCOC)CC3)NC2=O)c(CC)c1 (centres unmarked) [Example P32] | – | 90 | – | 100 | – | 100 | – | – | 100 | – | 90 | 90
CC#Cc1cc(Cl)c(C2=C(OC(=O)OCC)C3(CCC(OC)CC3)NC2=O)c(C2CC2)c1 (centres unmarked) [Example P33] | 100 | 100 | 100 | 100 | 100 | 100 | 100 | 100 | 100 | – | 100 | 100
CC#Cc1cc(Br)c(C2=C(OC(=O)OCC)C3(CCC(OC)CC3)NC2=O)c(CC)c1 (centres unmarked) [Example P34] | 90 | 100 | – | – | 100 | 100 | – | – | – | – | – | –
CC#Cc1cc(Br)c(C2=C(OC(=O)OCC)C3(CCC(OC)CC3)NC2=O)c(C2CC2)c1 (centres unmarked) [Example P35] | 100 | 100 | – | 100 | 100 | 100 | 100 | 100 | 100 | 100 | 100 | 100
CC#Cc1cc(Br)c(C2=C(OC(=O)OCC)C3(CCCC(OCCOC)C3)NC2=O)c(CC)c1 (centres unmarked) [Example Q1] | – | 90 | – | 90 | 80 | 100 | – | – | – | – | 90 | –
CC#Cc1cc(Br)c(C2=C(OC(=O)OCC)C3(CCCC(OCCOC)C3)NC2=O)c(C2CC2)c1 (centres unmarked) [Example Q2] | 100 | 100 | – | 100 | 100 | 100 | 100 | 100 | 100 | 100 | 100 | 100
CC#Cc1cc(C)c(C2=C(OC(=O)OCC)C3(CCCC(OCCC)C3)NC2=O)c(Br)c1 (centres unmarked) [Example Q3] | 100 | 100 | – | 100 | 100 | 100 | 100 | 100 | 100 | 100 | 100 | 100
CC#Cc1cc(C)c(C2=C(OC(=O)OC(C)(C)C)C3(CCCC(OCC(C)C)C3)NC2=O)c(Cl)c1 (centres unmarked) [Example Q7] | – | – | – | 80 | – | 100 | – | – | – | – | – | –
